Measured values taken from patent publication US20250257086A1, “EGFR DEGRADATION AGENT” (Beijing Tide Pharmaceutical Co., Ltd., priority 2022, published 2025).
Like-named read-outs stand apart in the source and are kept apart here.

What was measured:
Type in all cases: cell-based
[1] = system: H1975 (EGFR^L858R/T790M) cells; assay: Antiproliferative activity on H1975 (EGFR L858R/T790M) cells (CTG); details: Homo sapiens, read-out: IC50 (nM), antiproliferative activity
Experimental: 30 nL of the compound dilution was added to a 384-well plate by Echo (Labcyte, Echo550).
The percent inhibition rate (% inhibition) was calculated by the following formula
[formula] • LUMcmpd: Luminescence value of assay compound. • LUMpositive: Average LUM value of positive drug with a concentration of 10 μM. • LUMvehicle: Average LUM value of negative control group without drug treatment.
The nonlinear regression curve (dose response-variable slope) between the value of inhibition rate (%) and the logarithm of compound concentration was fitted with graphpad prism 8.0, the effect dose curve of compound was drawn, and the IC50 value was calculated.
Y=Bottom+(Top−Bottom)/(1+10^((Log IC50−X)*HillSlope)) • X-axis: logarithm of compound concentration; Y axis: inhibition rate (inhibition).

[2] = molecular target: T1, EGFR^L858R/T790M/C797S protein (Homo sapiens, UniProt P00533, C797S/L858R/T790M); assay: Induction of EGFR L858R/T790M/C797S protein degradation in Ba/F3 cells (Alpha counts); details: 24h treatment; for degradation effect on EGFR^L858R/T790M/C797S protein (in words): FIG. 1 and 2; for DC50: range 1 nM to 1000 nM, FIG. 1 and 2, read-out: DC50, reduction of EGFR^L858R/T790M/C797S protein level
T1 construct: expressed in transfected cells; host or cells: Ba/F3 (EGFR^L858R/T790M/C797S) cells
T1 sequence (P00533 25-1210 T790M/C797S/L858R): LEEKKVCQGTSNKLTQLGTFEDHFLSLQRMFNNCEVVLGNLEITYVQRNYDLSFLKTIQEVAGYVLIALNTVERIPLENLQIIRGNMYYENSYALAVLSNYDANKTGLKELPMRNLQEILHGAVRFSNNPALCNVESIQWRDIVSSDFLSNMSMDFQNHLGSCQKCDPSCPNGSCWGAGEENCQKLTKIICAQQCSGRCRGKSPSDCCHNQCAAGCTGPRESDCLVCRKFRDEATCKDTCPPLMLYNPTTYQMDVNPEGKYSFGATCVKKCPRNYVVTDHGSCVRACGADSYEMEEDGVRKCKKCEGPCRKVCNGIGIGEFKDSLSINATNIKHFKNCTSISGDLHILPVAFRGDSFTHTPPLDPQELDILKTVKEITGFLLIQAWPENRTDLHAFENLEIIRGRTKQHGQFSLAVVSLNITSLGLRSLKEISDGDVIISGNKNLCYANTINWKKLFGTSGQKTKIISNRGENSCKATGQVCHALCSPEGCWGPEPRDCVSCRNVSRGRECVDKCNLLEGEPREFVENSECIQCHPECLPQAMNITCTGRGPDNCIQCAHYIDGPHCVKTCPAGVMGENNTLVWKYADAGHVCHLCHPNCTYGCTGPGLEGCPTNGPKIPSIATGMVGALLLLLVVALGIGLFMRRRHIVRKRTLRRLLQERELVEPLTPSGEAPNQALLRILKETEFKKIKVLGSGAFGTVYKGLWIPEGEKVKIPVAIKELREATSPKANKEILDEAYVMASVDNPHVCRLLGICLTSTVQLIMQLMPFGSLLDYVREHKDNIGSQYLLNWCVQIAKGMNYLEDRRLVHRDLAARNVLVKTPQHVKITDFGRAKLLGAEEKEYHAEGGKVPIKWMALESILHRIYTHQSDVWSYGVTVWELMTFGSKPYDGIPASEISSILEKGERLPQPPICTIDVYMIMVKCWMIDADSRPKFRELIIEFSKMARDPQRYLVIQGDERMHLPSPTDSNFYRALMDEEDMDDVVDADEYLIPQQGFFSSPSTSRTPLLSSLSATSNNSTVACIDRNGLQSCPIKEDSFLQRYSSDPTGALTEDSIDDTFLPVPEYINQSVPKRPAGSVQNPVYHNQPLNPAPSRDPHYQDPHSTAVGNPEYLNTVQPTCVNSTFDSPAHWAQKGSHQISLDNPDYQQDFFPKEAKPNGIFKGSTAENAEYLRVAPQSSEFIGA
Experimental: (§1) Ba/F3 (EGFR^L858R/T790M/C797S) and Ba/F3 (EGFR^Del19/T790M/C797S) cells were cultured according to the culture conditions recommended by ATCC, and analyzed by index.
(§2) Culture conditions: incubated at 37° C., 95% air, 5% CO2 incubator.
(§3) (2) Compound Stock Solution: 10 mM Stock Solution in DMSO, Stored at −20° C.
(§4) The cells in the cell culture bottle were collected, and the cells with viability of >90% can be used in the assay. Cells were seeded in a 96-well plate with 40 μL cells, 1*10^5 cells/well.
(§5) The compounds were serially diluted 3× with DMSO, with the starting concentrations of the compounds being 1.0 mM (EGFR^L858R/T790M/C797S assay) and 10 mM (EGFR^Del19/T790M/C797S assay), respectively, into 10 concentrations to prepare working solutions.
(§6) (5) Compound was Pipetted into the 96-Well Plate to Treat Cells in a 37° C., 95% Air, 5% CO2 Incubator for 24h.
(§7) • 1) 1 μg/mL EGF stimulated cells for 10 min; • 2) After the compound treatment was completed, lysis buffer was added to lyse cells; 10 μL of cell lysate was transferred to the 384-well plate; in addition, control lysate, negative control and 5 μL of acceptor mix were added to the 384-well plate; The plate was shaken on a shaker for 1-2 min; • 3) 5 μL of donor mix was added to each well; the 384-well plate was sealed, shaken on a shaker for 1-2 min, and left in the dark at room temperature overnight; then the plate was read with ELISA reader.
(§8) Alpha counts were fitted by logarithmic treatment of compound concentration with Graphpad Prism 8.0.
(§9) [formula] • X: logarithm of compound concentration; Y: Alpha Counts.

[3] = molecular target: Ba/F3 (EGFR^L858R/T790M/C797S) cells (Homo sapiens, UniProt P00533, T790M/C797S/L858R, cells depend on it); assay: Antiproliferative activity on Ba/F3 (EGFR L858R/T790M/C797S) cells (CTG)
Ba/F3 (EGFR^L858R/T790M/C797S) cells, sequence (P00533 whole entry T790M/C797S/L858R): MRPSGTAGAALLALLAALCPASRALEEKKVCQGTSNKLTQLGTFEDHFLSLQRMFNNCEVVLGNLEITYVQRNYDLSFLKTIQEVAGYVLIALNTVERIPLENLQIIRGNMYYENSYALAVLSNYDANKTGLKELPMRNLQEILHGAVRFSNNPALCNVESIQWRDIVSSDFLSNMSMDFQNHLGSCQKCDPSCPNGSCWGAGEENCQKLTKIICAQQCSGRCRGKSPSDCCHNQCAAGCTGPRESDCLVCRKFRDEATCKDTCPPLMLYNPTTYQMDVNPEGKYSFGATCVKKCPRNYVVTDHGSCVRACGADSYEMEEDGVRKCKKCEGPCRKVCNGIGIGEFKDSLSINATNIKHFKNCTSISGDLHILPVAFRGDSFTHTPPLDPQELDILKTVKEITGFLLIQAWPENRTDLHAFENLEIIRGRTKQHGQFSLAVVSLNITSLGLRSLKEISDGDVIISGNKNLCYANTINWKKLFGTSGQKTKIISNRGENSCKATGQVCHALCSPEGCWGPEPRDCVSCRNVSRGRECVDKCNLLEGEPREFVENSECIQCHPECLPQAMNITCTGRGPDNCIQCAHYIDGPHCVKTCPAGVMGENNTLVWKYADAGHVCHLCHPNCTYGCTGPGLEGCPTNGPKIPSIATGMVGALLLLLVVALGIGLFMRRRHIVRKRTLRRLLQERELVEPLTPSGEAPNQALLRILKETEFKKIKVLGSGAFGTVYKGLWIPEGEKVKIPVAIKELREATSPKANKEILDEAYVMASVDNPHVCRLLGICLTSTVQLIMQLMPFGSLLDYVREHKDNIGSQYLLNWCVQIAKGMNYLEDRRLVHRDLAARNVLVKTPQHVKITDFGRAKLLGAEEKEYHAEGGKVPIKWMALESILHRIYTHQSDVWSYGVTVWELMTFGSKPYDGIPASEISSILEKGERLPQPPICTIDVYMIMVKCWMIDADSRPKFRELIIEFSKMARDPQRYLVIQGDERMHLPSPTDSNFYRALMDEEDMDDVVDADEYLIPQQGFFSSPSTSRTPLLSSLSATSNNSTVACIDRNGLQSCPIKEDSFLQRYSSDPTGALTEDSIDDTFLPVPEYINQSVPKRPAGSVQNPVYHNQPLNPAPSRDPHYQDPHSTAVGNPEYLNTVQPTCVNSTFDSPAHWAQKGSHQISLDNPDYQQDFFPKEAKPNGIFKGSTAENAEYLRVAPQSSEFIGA
Procedure, shortened: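 Luminescent CellTiter-Glo read-out on Ba/F3 cells carrying EGFR L858R/T790M/C797S. Inhibition normalised between untreated vehicle and a 10 μM positive drug. IC50 taken from a variable-slope four-parameter fit of inhibition against log compound concentration.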

[4] = molecular target: T2, EGFR^Del19/T790M/C797S protein (Homo sapiens, UniProt P00533, C797S/DEL746-750/T790M); assay: Induction of EGFR Del19/T790M/C797S protein degradation in Ba/F3 cells (Alpha counts); details: 24h treatment; for degradation effect on EGFR^Del19/T790M/C797S protein (in words): FIG. 3; for DC50: range 1 nM to 10000 nM, FIG. 3, read-out: DC50, reduction of EGFR^Del19/T790M/C797S protein level
T2 construct: expressed in transfected cells; host or cells: Ba/F3 (EGFR^Del19/T790M/C797S) cells
T2 sequence (P00533 with tags, fused parts or gaps DEL746-750/T790M/C797S): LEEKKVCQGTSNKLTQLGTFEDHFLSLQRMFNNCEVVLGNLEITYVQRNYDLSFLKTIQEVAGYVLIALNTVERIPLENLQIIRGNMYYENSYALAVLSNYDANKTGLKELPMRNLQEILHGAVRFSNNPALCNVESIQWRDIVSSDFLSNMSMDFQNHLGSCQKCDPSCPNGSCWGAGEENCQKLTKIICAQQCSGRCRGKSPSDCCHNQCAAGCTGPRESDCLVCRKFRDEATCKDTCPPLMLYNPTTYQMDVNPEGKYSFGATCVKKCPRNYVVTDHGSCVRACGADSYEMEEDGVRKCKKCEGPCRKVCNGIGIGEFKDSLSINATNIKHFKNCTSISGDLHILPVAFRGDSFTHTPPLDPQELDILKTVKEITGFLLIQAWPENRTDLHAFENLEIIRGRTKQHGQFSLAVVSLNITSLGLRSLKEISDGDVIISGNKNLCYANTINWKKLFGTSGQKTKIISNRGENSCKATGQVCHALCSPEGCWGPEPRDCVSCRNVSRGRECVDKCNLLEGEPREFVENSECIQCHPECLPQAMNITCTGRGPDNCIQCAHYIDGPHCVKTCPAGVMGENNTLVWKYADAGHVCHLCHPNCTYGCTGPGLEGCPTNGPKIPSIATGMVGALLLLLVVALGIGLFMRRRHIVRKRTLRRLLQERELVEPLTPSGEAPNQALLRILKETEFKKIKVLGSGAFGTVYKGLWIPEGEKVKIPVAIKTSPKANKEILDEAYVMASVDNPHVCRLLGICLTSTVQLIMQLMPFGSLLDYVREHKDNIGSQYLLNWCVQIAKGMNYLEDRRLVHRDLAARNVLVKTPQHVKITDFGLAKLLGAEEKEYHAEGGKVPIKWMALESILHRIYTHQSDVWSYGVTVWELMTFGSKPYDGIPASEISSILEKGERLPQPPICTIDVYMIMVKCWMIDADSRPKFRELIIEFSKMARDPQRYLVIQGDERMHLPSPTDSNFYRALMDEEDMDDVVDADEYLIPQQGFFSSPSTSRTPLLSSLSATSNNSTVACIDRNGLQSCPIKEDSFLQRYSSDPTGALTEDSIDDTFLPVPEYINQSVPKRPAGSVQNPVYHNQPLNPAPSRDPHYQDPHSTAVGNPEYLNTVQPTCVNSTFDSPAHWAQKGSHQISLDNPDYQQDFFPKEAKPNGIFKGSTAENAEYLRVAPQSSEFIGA
Experimental: as §1, §2, §3, §4, §5, §6, §7, §8, §9

[5] = 72h incubation, CTG luminescence, read-out: IC50 (nM), antiproliferative activity
[6] = NCI-H1975, H1975 (EGFR^L858R/T790M) cells, 72h incubation, CTG luminescence

Row | Compound | degradation effect on EGFR^L858R/T790M/C797S protein (in words) [2] | GI50 [3, 5] [nM] | IC50 [1, 6] [nM] | other results
1 | C=CC(=O)Nc1cc(Nc2nccc(-c3cn(C)c4ccccc34)n2)c(OC)cc1N(C)CCN(C)C [Osimertinib] |  |  |  | IC50 ([1]; NCI-H1975, 72 h): 10.7 nM
2 | C=C(F)C(=O)Nc1cc(Nc2ncc(Cl)c(Nc3ccccc3P(C)(C)=O)n2)c(OC)cc1N1CCC(N2CCN(C)CC2)CC1 [Comparative compound L527, reference compound] | no degradation effect | 458 |  | 
3 | COc1cc(N2CCC(N3CCN(C)CC3)CC2)ccc1Nc1ncc(Cl)c(Nc2ccccc2P(C)(C)=O)n1 [Brigatinib, reference compound] | no degradation effect |  | 747 | GI50 ([3]; read-out: IC50 (nM), antiproliferative activity, 72h incubation, CTG luminescence): 355 nM
4 | COc1cc(N2CCC(N3CCN(CCCC#Cc4cccc5c4CN(C4CCC(=O)NC4=O)C5=O)CC3)CC2)ccc1Nc1ncc(Cl)c(Nc2ccccc2P(C)(C)=O)n1 (stereo not drawn) [Comparative compound C126] |  |  | 1390 | 

More lines, main results first:

Row | degradation effect on EGFR^L858R/T790M/C797S protein (in words) [2] | GI50 [3, 5] [nM] | IC50 [1, 6] [nM] | Compound | other results
5 | significant degradation effect | 37.3 |  | C=C(F)C(=O)Nc1cc(Nc2ncc(Cl)c(Nc3ccccc3P(C)(C)=O)n2)c(OC)cc1N1CCC(N2CCN(CCCC#Cc3cccc4c3CN(C3CCC(=O)NC3=O)C4=O)CC2)CC1 (stereo not drawn) [Compound D552, N-(5-((5-chloro-4-((2-(dimethylphosphoryl)phenyl)amino)pyrimidin-2-yl)amino)-2-(4-(4-(5-(2-(2,6-dioxopiperidin-3-yl)-1-oxoisoindolin-4-yl)pent-4-yn-1-yl)piperazin-1-yl)piperidin-1-yl)-4-methoxyphenyl)-2-fluoroacrylamide] | degradation effect on EGFR^Del19/T790M/C797S protein (in words) [4]: significant degradation effects; DC50 [4]: 29.7 nM; DC50 [2]: 117 nM
6 |  | 30.3 | 17.6 | C=CC(=O)Nc1cc(Nc2ncc(Br)c(Nc3ccccc3P(C)(C)=O)n2)c(OC)cc1N1CCC(N2CCN(CCCC#Cc3cccc4c3CN(C3CCC(=O)NC3=O)C4=O)CC2)CC1 (stereo not drawn) [Compound D478, N-(5-((5-bromo-4-((2-(dimethylphosphoryl)phenyl)amino)pyrimidin-2-yl)amino)-2-(4-(4-(5-(2-(2,6-dioxopiperidin-3-yl)-1-oxoisoindolin-4-yl)pent-4-yn-1-yl)piperazin-1-yl)piperidin-1-yl)-4-methoxyphenyl)acrylamide] | 
7 | significant degradation effect | 19.2 |  | C=C(F)C(=O)Nc1cc(Nc2ncc(Br)c(Nc3ccccc3P(C)(C)=O)n2)c(OC)cc1N1CCC(N2CCN(CCCC#Cc3cccc4c3CN(C3CCC(=O)NC3=O)C4=O)CC2)CC1 (stereo not drawn) [Compound D078, N-(5-((5-bromo-4-((2-(dimethylphosphoryl)phenyl)amino)pyrimidin-2-yl)amino)-2-(4-(4-(5-(2-(2,6-dioxopiperidin-3-yl)-1-oxoisoindolin-4-yl)pent-4-yn-1-yl)piperazin-1-yl)piperidin-1-yl)-4-methoxyphenyl)-2-fluoroacrylamide] | DC50 [2]: 84.7 nM
8 |  | 68.7 |  | C=CC(=O)Nc1cc(Nc2ncc(Cl)c(Nc3ccccc3P(C)(C)=O)n2)c(OC)cc1N1CCC(N2CCN(CCCC#Cc3cccc4c3CN(C3CCC(=O)NC3=O)C4=O)CC2)CC1 (stereo not drawn) [Compound D481, N-(5-((5-chloro-4-((2-(dimethylphosphoryl)phenyl)amino)pyrimidin-2-yl)amino)-2-(4-(4-(5-(2-(2,6-dioxopiperidin-3-yl)-1-oxoisoindolin-4-yl)pent-4-yn-1-yl)piperazin-1-yl)piperidin-1-yl)-4-methoxyphenyl)acrylamide] | 
9 |  | 35.6 | 14.6 | CC#CC(=O)Nc1cc(Nc2ncc(Cl)c(Nc3ccccc3P(C)(C)=O)n2)c(OC)cc1N1CCC(N2CCN(CCCC#Cc3cccc4c3CN(C3CCC(=O)NC3=O)C4=O)CC2)CC1 (stereo not drawn) [Compound D058, N-(5-((5-chloro-4-((2-(dimethylphosphoryl)phenyl)amino)pyrimidin-2-yl)amino)-2-(4-(4-(5-(2-(2,6-dioxopiperidin-3-yl)-1-oxoisoindolin-4-yl)pent-4-yn-1-yl)piperazin-1-yl)piperidin-1-yl)-4-methoxyphenyl)but-2-ynamide] | degradation effect on EGFR^Del19/T790M/C797S protein (in words) [4]: significant degradation effects; DC50 [4]: 25.1 nM
10 |  | 22.5 |  | CC#CC(=O)Nc1cc(Nc2ncc(Cl)c(Nc3ccc4c(c3P(C)(C)=O)OCCO4)n2)c(OC)cc1N1CCC(N2CCN(CCCC#Cc3cccc4c3CN(C3CCC(=O)NC3=O)C4=O)CC2)CC1 (stereo not drawn) [Compound D685] | 
11 |  | 36.7 |  | COc1cc(N2CCC(N3CCN(CCCC#Cc4cccc5c4CN(C4CCC(=O)NC4=O)C5=O)CC3)CC2)c(C)cc1Nc1ncc(Br)c(Nc2ccc3nccnc3c2N(C)S(C)(=O)=O)n1 (stereo not drawn) [Compound D932] | 
